Experimental data as given in US6710090B2, “Inhibitory or blocking agents of molecular generating and/or inducing functions” (priority 1994, dated 2004).
Read-outs that look alike come from different tables or passages of the source.

Legend:
[1] = tested on: atypical mycobacteria (Mycobacterium Rapid Grower); test: Anti-microbacterial effect on acid-fast bacteria; assay type: cell-based
[2] = biological target: T1, thrombin (Homo sapiens, UniProt P00734); test: Function and configuration of thrombin, electrophoresis; assay type: biochemical; design: thrombin (Behlinger Manheim-Yamanouchi Co.) was investigated by electrophoresis; purchased Behlinger Manheim-Yamanouchi Co; conditions: after treatment with Yoshixol 4 μl
Protocol: (§1) Each physiological effect of trypsin (Wakou Jyunyaku Ltd.) and thrombin (Behlinger Manheim-Yamanouchi Co.) was investigated by electrophoresis. When trypsin was added to bovine albumin (Sigma Co. Saint Louis, Mo., USA) or myoglobin (Sigma Co. Saint Louis, Mo., USA), each primary structure of proteins which consist of albumin was altered by proteolytic action of trypsin. In addition, when thrombin was added to human fibrinogen (Behlinger Manheim-Yamanouchi Co.), a primary structure of proteins which consists of fibrinogen was not found.

[3] = biological target: T1, thrombin; test: Composition of amino acids in thrombin; assay type: biochemical; design: 1 ml of human thrombin before and after treatment with Yoshixol; conditions: did not exist before treatment; Yoshixol 4 μl
Protocol: Changes in composition of amino acids were analyzed by use of 1 ml of human blood serum, 1 ml of human fibrinogen (concentration of 160 mg/dl), 1 ml of human thrombin before and after treatment with Yoshixol (4 μl). The total amino acids in the human blood serum which was treated with Yoshixol decreased by 41%. And, ratio of each composition was altered after the treatment so that as an example the concentration of phosphoserine increased about 20 times which level was from 7.2 picomole to 164.8 picomole.

[4] = tested on: trypsin; test: Function and configuration of trypsin, electrophoresis; assay type: biochemical; conditions: after treatment with Yoshixol 4 μl
Protocol: as §1

[5] = tested on: methitilin resistance staphylococcus aureus, MRSA (stock no. SCK18); assay type: cell-based; conditions: for colony formation unit (CFU): 24-hour incubation at 37° C., initial 10^8, control 10^10
[6] = tested on: nitric oxide (NO); test: Involvement of nitric oxide, NG-methyl-L-arginine (NMLA) as blocking agent; conditions: 4 μl of NMLA (1 mol) added; compared to Yoshixol alone
Protocol: Recent interest has been focused recently in effects of nitric oxide (NO) which is generated in body. Such effects are anticancer effect, bactericidal effect, inhibitory effect of antigen-antibody reaction and cardiovascular effect. […] When 4 μl of NMLA (1 mol) was added in the each test sample with and without Yoshixol, blood aggregation effect, effect of fibrin formation and bactericidal effect of Yoshixol were decreased by 10-20% comparing to effect of Yoshixol alone.

[7] = tested on: E79 double-chained DNA phage; test: Effect on bacteriophage, numbers of plaques; assay type: cell-based, bacteriophage (indication bacteria pseudomonas aeruginosa)
Protocol: Yoshixol (4 μl) were added in 1 ml of phage solution (E79 double-chained DNA phage) which was adjusted on about 10^7 per 1 ml, and were mixed well. Then, 10 μl of the mixture sampled after 5, 10, 20, 30 minutes was diluted by quickly adding in 10 ml of medium, so that 100 μl of the phage-diluted solution put into the test tube as the upper plate with the warmed gelatin agar, which was mixed with 100 μl of the indication bacterial solution (pseudomonas aeruginosa) cultured for one night. Then, the adjusted solution of the phages in the test tube was dropped on the agar plate and, homogeneous surface of the upper agar plate was produced by smoothly rotating the plate on the table. After resting it on the table about 10 minute when multilayer gelatin agar sufficiently became solid, they were stocked into the incubator at 37° C. After one night incubation, numbers of plaques were counted. As a result, the numbers of plaques in the 5 min-treated phage solution, in 10 min-treated phage solution and in the […] phage solution with Yoshixol decreased to 33%, 15% and 6% of the plaques formation in the non-treated phage solution, respectively.

[8] = tested on: human blood (erythrocytes); test: Preservative effect on organs and tissues, stored human blood; assay type: cell-based; conditions: 5 ml human blood, 4 μl of Yoshixol
Protocol: After sampling 5 ml of human blood from a cubital vein, the blood sample was replaced into the vacuum tube with 10 ml capacity and was mixed in a gentle. The vacuum tubes were divided by two group; one group is nontreated and another treated with 4 μl of Yoshixol. Then, changes in morphological aspects of blood, which were stored at room temperature, were observed by a transmission type and scanning electron microscopes at 30 minutes, one hour and 1 month after the sampling. […] It was existed likely as a destroyed and aggregated mass. […] Many stomatocytes (lip-like erythrocyte) and echinocyte which is appeared at a lack of pyruvate kinase were observed.

[9] = tested on: mouse hepatoma cells; test: Anti-cancer effect, cultured mouse hepatoma cells; assay type: cell-based; conditions: compared with keratinocytes treated with Yoshixol
[10] = tested on: human defibrinized serum, bovine albumin, human fibrinogen, myoglobin, anti-A blood type serum and anti-B blood type serum; test: Primary structure of proteins, electrophoretic analysis of non-SDS wide page; assay type: biochemical; conditions: 1 ml protein solutions, Yoshixol 4 μl, heated denaturation
Protocol: Changes in molecular weight composition of the following macromolecular proteins (1 mole solution) before and after treatment with Yoshixol (4 μl) were investigated after heated denaturation by electrophoretic analysis of non-SDS wide page. The used macromolecules proteins solutions of 1 ml are human defibrinized serum, bovine albumin, human fibrinogen, myoglobin, anti-A blood type serum and anti-B blood type serum (Green Cross Co.). Even after treatment with Yoshixol, distribution of molecular weights on electrophoretic analysis was identical to that of the macromolecules proteins which is not treated (referred FIG. 7).

[11] = tested on: E. coli strain no. W3110; test: Anti-microbacterial effect on E. Coli; assay type: cell-based; conditions: for colony formation unit (CFU): 2 μl per 1 ml of culture medium
[12] = tested on: Candida albicans; test: Antifungal effect; assay type: cell-based; conditions: for CFU: 2 μl per 1 ml of culture medium, 10^6 CFU/ml, Sabouraud broth
[13] = 50 μl in the whole space of the schale, indirect contact, 24 hours, 37° C.

## C=C1CC(C)(C)C=CC1=O [Yoshixol, 4,4-dimethyl-6-methylene-2-cyclohexen-1-one]
[1]; [13]
  proliferation with evaporating component of Yoshixol: did not occur
[1]; at 2 μl
  diameter of inhibition zone of proliferation: 22 mm
[1]; brain-heart infusion agar
  dosage at which formation of inhibition zone of proliferation occurred: 0.2 μl of Yoshixol per 1 ml of the culture medium
[2]
  physiological function of thrombin to fibrinogen: did not occur
  primary structure of thrombin (electrophoresis): did not show any electrophoretic changes
[3]
  glutamic acid, taurine, methionine and aminoisobutylic acid in thrombin sample: produced newly
[4]
  physiological function of trypsin to bovine albumin, myoglobin: did not occur
  primary structure of trypsin (electrophoresis): did not show any electrophoretic changes
[5]; 0.25 μl per 1 ml of culture medium
  colony formation unit (CFU): 10^4 CFU
[5]; 2 μl per 1 ml of culture medium
  colony formation unit (CFU): 10^2 CFU
[5]; 10 μl per 1 ml of culture medium
  colony formation unit (CFU): zero
[5]; [13]
  proliferation with evaporating component of Yoshixol: did not occur
[5]; after Yoshixol
  histological aspect of cell death, scanning electron microscopy: separated to an individual bacterial cell
[6]
  decrease of blood aggregation effect, effect of fibrin formation and bactericidal effect of Yoshixol: 10-20%
[7]; Yoshixol 4 μl in 1 ml phage solution (about 10^7 per ml), 5 min-treated
  numbers of plaques, of the plaques formation in the non-treated phage solution: 33%
[7]; Yoshixol 4 μl in 1 ml phage solution, 10 min-treated
  numbers of plaques, of the plaques formation in the non-treated phage solution: 15%
[7]; Yoshixol 4 μl in 1 ml phage solution, 15 min-treated
  numbers of plaques, of the plaques formation in the non-treated phage solution: 6%
[7]; Yoshixol 4 μl in 1 ml phage solution, treated over 20 min
  plaques formation: plaques formation did not find
[8]; room temperature
  aggregation of erythrocytes: did not show an aggregation with fibrin networks
[8]; stored at room temperature
  cell membrane and intracellular organella of erythrocytes: preserved normally over 1 month
[9]
  structure between cells and cellular aspect: observations similar to the above were found
[10]
  distribution of molecular weights on electrophoretic analysis versus not treated: identical
[11]; after 1 hour cultured, initial 10^8
  colony formation unit (CFU): zero
[11]; after 24 hours, initial 10^8, control 10^10
  colony formation unit (CFU): zero
[11]; [13]
  proliferation with evaporating component of Yoshixol: did not occur
[11]; final stage after Yoshixol
  histological aspect of cell death, scanning electron microscopy: destroyed resulting in small particles
[12]; after 1 hour
  CFU: zero
[12]; after 3 hours incubated
  CFU: zero
[12]; [13]
  proliferation with evaporating component of Yoshixol: did not occur
